Values of other authors as cited in patent publication US10596151B2, “Methods and pharmaceutical compositions for reducing arterial stiffness with a combination of a therapeutic agent blocking the angiotensin receptor and a therapeutic agent inhibiting the NEP enzyme” (Novartis AG, priority 2015, dated 2020).

System: patients with hypertension
Settings: after 12 weeks of therapy; cited from earlier work

O=C(N[C@H]1CCS[C@H]2CCC[C@@H](C(=O)O)N2C1=O)[C@@H](S)Cc1ccccc1 [omapatrilat]
aortic characteristic impedance compared with enalapril: greater improvements in aortic characteristic impedance compared with enalapril
